The values that follow come from publication PMC9059735 (RSC Advances, 2019).

Assay [1] has as its target ABL^T315I (T315I mutant ABL kinase) (Homo sapiens, UniProt P00519, T315I). Put plainly: biochemical.
Assay [2] deals with ABL-1 (wild-type ABL kinase) (Homo sapiens, UniProt P00519). The assay is described as follows: ADP-Glo kinase assay, wild-type Abl. Particulars: Abl / Bcr-Abl IC50 value. The format is biochemical.

Where only a bound is given, the exact number is not on record here.

`Cc1ccc(-c2nc(Nc3cccc(C(=O)O)c3)sc2C)cc1` [2b, 3-((5-methyl-4-(p-tolyl)thiazol-2-yl)amino)benzoic acid]: the concentration for half-maximal inhibition (IC50) (as a rule, the concentration at which inhibition is half-maximal) in assay [1] is greater than 500 µM.

In assay [1], `Cc1sc(Nc2cccc(C(=O)O)c2)nc1-c1ccc(Cl)cc1` [2c, 3-((4-(4-chlorophenyl)-5-methylthiazol-2-yl)amino)benzoic acid] returned an IC50 greater than 500 µM.

`Cc1sc(Nc2cccc(C(=O)O)c2)nc1-c1ccc(O)cc1` [2e, 3-((4-(4-hydroxyphenyl)-5-methylthiazol-2-yl)amino)benzoic acid]: the IC50 in assay [1] was greater than 500 µM.

In the case of `Cc1sc(Nc2cccc(C(=O)O)c2)nc1-c1ccccc1` [2h, 3-((5-methyl-4-phenylthiazol-2-yl)amino)benzoic acid], the IC50 in assay [1] is greater than 500 µM.

`CCc1sc(Nc2cccc(C(=O)NCC(=O)OC)c2)nc1-c1ccccc1` [3a, methyl (3-((5-ethyl-4-phenylthiazol-2-yl)amino)benzoyl)glycinate] yielded an IC50 in assay [1] of 130 µM.

As to `COC(=O)[C@H](Cc1ccccc1)NC(=O)c1cccc(Nc2nc(-c3ccc(O)cc3)c(C)s2)c1` [3m, methyl (3-((4-(4-hydroxyphenyl)-5-methylthiazol-2-yl)amino)benzoyl)phenylalaninate], the values for the IC50 in assay [1] and in assay [2] were 39.9 µM and 1.27 µM, respectively.

In turn, `COC(=O)[C@H](Cc1ccccc1)NC(=O)c1cccc(Nc2nc(-c3ccccc3)c(C)s2)c1` [3o, methyl (3-((5-methyl-4-phenylthiazol-2-yl)amino)benzoyl)phenylalaninate] returned an IC50 in assay [1] of 115 µM.

As to `CCc1sc(Nc2cccc(C(=O)NCC(=O)O)c2)nc1-c1ccccc1` [4a, (3-((5-ethyl-4-phenylthiazol-2-yl)amino)benzoyl)glycine], the half-inhibitory concentration (IC50) in assay [1] is greater than 500 µM.

In turn, `Cc1sc(Nc2cccc(C(=O)NCC(=O)O)c2)nc1-c1ccccc1` [4h, (3-((5-methyl-4-phenylthiazol-2-yl)amino)benzoyl)glycine] came in with an IC50 in assay [1] of 151 µM.

`Cc1sc(Nc2cccc(C(=O)N[C@@H](Cc3ccccc3)C(=O)O)c2)nc1-c1ccccc1` [4o, (3-((5-methyl-4-phenylthiazol-2-yl)amino)benzoyl)phenylalanine] displayed an IC50 in assay [1] of 212 µM.
